How the values were obtained:
[1] = Plasma protein binding in vitro; assay type: in vitro ADME; details: plasma, co-administered in vitro
clinical [2] = assay type: in vivo, human; details: human, in vivo
Procedure: (§1) • Protocol AMX3500: sparse sampling in 87 subjects with ALS. Approximately 2 samples are collected for each subject, 1 or 4 hours post dose following 12 and 24 weeks of treatment. • Protocol A35-002: rich sampling in 14 healthy adults. Approximately 21 samples are collected over 24 hours for each subject on two occasions, once following a high fat meal and the other under fasting conditions.
A total of 14 healthy subjects were enrolled in order to have no fewer than 12 subjects complete. A predefined mix of gender was selected.
Each study period followed the same study design (FIG. 1). Subjects were screened for inclusion in the study up to 28 days before dosing. Subjects were admitted to the clinical unit during Study Day −2 for Period 1 and Day −1 for Period 2 and were dosed in the morning of Day 1. On the night prior to Period 1 the subjects in the fasted/fed or fed/fasted sequence were fasted for a minimum of 10 h prior to dosing.
The solution was stirred until the powder was mostly dissolved.
Any departures from the intended regimen were recorded in the eCRFs. All dose administrations were performed in the study center under the supervision of appropriately trained staff.
Subjects were provided with a light snack and were then fasted from all food and drink (except water) until the following morning, when they were provided with a high-fat breakfast. The breakfast was consumed over a maximum period of 25 min, and dosing occurred 30 min after the start of breakfast. Subjects were encouraged to eat their meal evenly over the 25 min period. For this trial the subject was deemed compliant if they consumed >80% of the high-fat standard breakfast.
The subjects in the 24-h baseline and in the fasted condition Period remained fasted up to 4 h post-dose and were offered a standardized meal to be taken between 4.00 and 5.00 h post-dose. Subjects in the fed condition were fasted overnight and received a high-fat standard breakfast 30 minutes pre-dose and then remained fasted for 4.00 to 5.00 h post-dose when they received a standardized meal.
Venous blood samples were withdrawn via an indwelling cannula or by venipuncture according to the time schedule presented in Table 5 Table, Table 6, and Table 7.
Blood samples of approximately 4 mL were collected into 4 mL BD Vacutainer Plastic K2EDTA Tubes with Lavender Hemogard Closure, and was gently inverted approximately 8 times. The tubes were then immediately stored on ice and processed within 60 min of collection by centrifugation at 1500 g for 10 min at 2 to 8° C. The resultant plasma was separated equally into 2 aliquots and transferred to 2 mL appropriately labelled primary and backup polypropylene cryovials.
Actual elapsed time from dosing was to be used for the final plasma PK parameter calculations after database lock.

clinical [3] = assay type: in vivo, human; details: human, in vivo; remark: listed apart in the source
Procedure: • 1. […] Treatment is administered as one sachet daily for the initial 3 weeks and then increased if tolerated to one sachet twice daily. […] Sampling times are randomly assigned to occur at either 1 or 4 hours post-dose at the 12 week visit and the other time at the 24 week visit. • Treatment duration: 24 weeks • 2.
as §1
Subjects were advised to take the drug before a meal. […] Referred to as protocol 3500.
A study was carried out to examine plasma concentration data in various subgroups for the protocol AMX3500 Phase 2 study. This example summarizes plasma concentrations of TUDCA and 2 metabolites, also related acids, UDCA, the de-conjugated TUDCA metabolite, and GUDCA, the glycine conjugate of UDCA.
For each of the 2 treatment arms (treatment and placebo), subjects were further divided into 2 sample sequence groups for schedule of pharmacokinetic measurements: • 1. 1 hour post-dose for the Week 12 visit and 4 hours post-dose for the Week 24 visit • 2. 4 hours post-dose for the Week 12 visit and 1 hour post-dose for the Week 24 visit
Twenty-four distinct medication descriptions were identified as containing antibiotics. Dates of antibiotic use were compared to dates of visits and if the antibiotic use date range contained the visit date, then that visit was flagged for that subject's data for antibiotic use. […] These antibiotics could hypothetically be in a subject's body still if this event occurred. However, it was observed that only a small number of subjects took antibiotics near to visit dates but not overlapping visit dates. In other cases, subjects were taking antibiotics on the date of one visit but not the others. Some subjects are therefore in both categories of antibiotic use and nonuse, though no individual visits for a subject are counted in both categories at the same time.
Subjects whose race were recorded as “Black” or “African American” were evaluated according to the standard Glomerular Filtration Rate (eGFR) rating for that race. The other standard eGFR rating used, sometimes referred to as a standard for people who are White, was applied to subjects of all other races. These rates were analyzed as continuous in mL/min/1.73 m2 units and as the following categories: • 1. Less than 90 mL/min/1.73 m^2 • 2. Equal to or greater than 90 mL/min/1.73 m^2
Age was converted from a continuous variable to 2 categories: • 1. As old or older than 65 years old • 2. Younger than 65 years old
All boxplots boxes are bounded at the 25th and 75th percentile, with whiskers at 10th and 90th percentiles, outliers beyond that as points, the black line as median, and red line as mean.

[4] = within 24 hours; cited from earlier work
[5] = Population pharmacokinetic model and simulations of PB and PAA (healthy subjects and ALS patients); parameters: species or system human; details: for Cmax, Mean: from individual Bayesian (post hoc) parameter estimates; for Cmax, 2.5th percentile / Cmax, 97.5th percentile / Cmax, Geometric mean / Cmax, Median: post hoc Bayesian estimates; for CL/F, apparent (oral) metabolic clearance of phenylbutyrate to phenylacetate / Ka, PB oral absorption rate constant under fasting conditions / Ka, oral absorption rate constant when phenylbutyrate is administered with food / V/F, apparent volume of distribution of phenylbutyrate: population PK
Source text: The order of administration with and without food was randomly assigned. […] Subjects were advised to take the drug before a meal. […] No inter-occasion variability (IOV) was included.

SMILES: O=C(O)CCCc1ccccc1 [PB, sodium phenylbutyrate]
- fraction unbound [1]: 0.18
- half-life (clinical [2]; both sexes, T1/2): 27.6 min
- Tmax (clinical [2]; both sexes, Tmax): 30 min
- Tmax (clinical [2]; both sexes, Tmax Median): 30 min
- half-life (clinical [2]; both sexes, elimination half-lives (range)): 24 to 42.6 min
- Cmax (clinical [2]; both sexes, mean Cmax): 188 µg/mL
- Cmax (clinical [2]; both sexes, po, Cmax): 188 µg/mL
- AUC(0-inf) Adj Geo Mean (clinical [2]; both): 261 µg·h/mL
- AUC(0-last), Adj Geo Mean (clinical [2]; both): 241 µg·h/mL
- Cmax, Adj Geo Mean (clinical [2]; both): 191 µg/mL
- Tmax (clinical [2]; both): 15 min
- concentrations remained quantifiable until (clinical [2]; both): 3.00 to 5.00 h
- decrease in AUC with high-fat, high-calorie meal (clinical [2]; both): 55%
- time at which plasma concentrations typically peaked (clinical [2]; both): 0.5 to 1 h
- time by which eliminated from systemic circulation (clinical [2]; both): ≤ 6 h
- time by which plasma concentrations fell below LLOQ (clinical [2]; both): 4 to 5 h
- time from which plasma concentrations were evident (clinical [2]; both): 0.25 h
- time of maximum plasma concentrations (range) (clinical [2]; both): 0.25 to 0.50 h
- median time to Cmax (clinical [2]): 1 h
- accumulation in plasma after once- or twice-daily dosing (clinical [3]): no accumulation
- fraction excreted in the urine as phenylacetylglutamine [4]: 80-100%
- effect of age on pharmacokinetics ([5]; ALS patients aged 65-76 versus less than 65 years, model-based analysis): no significant difference
- Cmax, Mean ([5]; ALS patients, Fasting): 131 µg/mL
- Cmax, 2.5th percentile ([5]; ALS patients, Fasting): 10.3 µg/mL
- Cmax, 97.5th percentile ([5]; ALS patients, Fasting): 414 µg/mL
- Cmax, Geometric mean ([5]; ALS patients, Fasting): 90.9 µg/mL
- Cmax, Median ([5]; ALS patients, Fasting): 97.9 µg/mL
- Cmax, Mean ([5]; ALS patients, Fed): 48.4 µg/mL
- Cmax, 2.5th percentile ([5]; ALS patients, Fed): 8.74 µg/mL
- Cmax, 97.5th percentile ([5]; ALS patients, Fed): 112 µg/mL
- Cmax, Geometric mean ([5]; ALS patients, Fed): 39.4 µg/mL
- Cmax, Median ([5]; ALS patients, Fed): 43.9 µg/mL
- estimated steady-state mean Cmax ([5]; ALS patients, based on population PK): 131 µg/mL
- terminal elimination half-life ([5]; based on typical values for CLPB/F and VPB/F): 27 min
- effect of mild renal insufficiency on pharmacokinetics ([5]; eGFR greater than 60 mL/min, model-based analysis): no significant correlation
- decrease in Ka, fed versus fasting ([5]; final model projection): 60%
- relationship between exposure and body weight ([5]; population PK analysis): not appreciably affected by body weight
- CL/F, apparent (oral) metabolic clearance of phenylbutyrate to phenylacetate ([5]; Bootstrap Median): 14.7 L/h
- Ka, PB oral absorption rate constant under fasting conditions ([5]; Bootstrap Median): 1.96
- Ka, oral absorption rate constant when phenylbutyrate is administered with food ([5]; Bootstrap Median): 0.779
- V/F, apparent volume of distribution of phenylbutyrate ([5]; Bootstrap Median): 9.7 L
- CL/F, apparent (oral) metabolic clearance of phenylbutyrate to phenylacetate ([5]; Final Model mean estimate): 14.8 L/h
- Ka, PB oral absorption rate constant under fasting conditions ([5]; Final Model mean estimate): 1.92
- Ka, oral absorption rate constant when phenylbutyrate is administered with food ([5]; Final Model mean estimate): 0.767
- V/F, apparent volume of distribution of phenylbutyrate ([5]; Final Model mean estimate): 9.6 L

— US20230372263A1, “METHODS AND COMPOSITIONS FOR TREATING AMYOTROPHIC LATERAL SCLEROSIS” (Amylyx Pharmaceuticals, Inc., priority 2022, published 2023)
